Reference: article PMC4031293 (Molecular pharmaceutics, 2014)
“Also recorded” adds a separate entry of the source. Counter-ions that a name gives are not always drawn. Like-named read-outs stand apart in the source and are kept apart here.

Legend:
P-gp at the rat BBB [1] = biological target: T1, P-gp at the rat BBB (Rattus norvegicus, UniProt Q6PSM0); conditions: from brain:plasma ratios 0.044 and 0.93
[2] = pseudo steady-state blood CsA and plasma NFV concentrations in rats; format: in vivo, rat
P-gp at the human BBB [3] = conditions: for predicted increase in NFV human brain:plasma concentration ratio: prediction based on the rat study alone
BCRP = conditions: cited from earlier work
P-gp [4] = conditions: cited from earlier work; for increase in brain distribution in mdr1a/b(−/−) vs. wild-type mice: 2, 3
P-gp [5] = biological target: P-gp (Rattus norvegicus, UniProt Q6PSM0); assay: in vivo; conditions: Sprague Dawley; for Kp at 2 h: absence of CsA, 120 min; for Kp at 120 min: with maximum P-gp inhibition by CsA
[6] = cited from earlier work
[7] = system: intracerebral human glioblastoma; conditions: co-administration with paclitaxel compared to paclitaxel alone; cited from earlier work
P-gp at the human BBB [8] = conditions: tariquidar 6 mg/kg; cited from earlier work
P-gp [9] = conditions: P-gp chemically inhibited, mouse or rat; 4; 5; cited from earlier work
P-gp at the rat BBB [10] = biological target: T1, P-gp at the rat BBB; conditions: 5.6 µM CsA blood concentration; 18; cited from earlier work

P-gp (Rattus norvegicus, UniProt Q6PSM0), sequence (Q6PSM0 1-1272): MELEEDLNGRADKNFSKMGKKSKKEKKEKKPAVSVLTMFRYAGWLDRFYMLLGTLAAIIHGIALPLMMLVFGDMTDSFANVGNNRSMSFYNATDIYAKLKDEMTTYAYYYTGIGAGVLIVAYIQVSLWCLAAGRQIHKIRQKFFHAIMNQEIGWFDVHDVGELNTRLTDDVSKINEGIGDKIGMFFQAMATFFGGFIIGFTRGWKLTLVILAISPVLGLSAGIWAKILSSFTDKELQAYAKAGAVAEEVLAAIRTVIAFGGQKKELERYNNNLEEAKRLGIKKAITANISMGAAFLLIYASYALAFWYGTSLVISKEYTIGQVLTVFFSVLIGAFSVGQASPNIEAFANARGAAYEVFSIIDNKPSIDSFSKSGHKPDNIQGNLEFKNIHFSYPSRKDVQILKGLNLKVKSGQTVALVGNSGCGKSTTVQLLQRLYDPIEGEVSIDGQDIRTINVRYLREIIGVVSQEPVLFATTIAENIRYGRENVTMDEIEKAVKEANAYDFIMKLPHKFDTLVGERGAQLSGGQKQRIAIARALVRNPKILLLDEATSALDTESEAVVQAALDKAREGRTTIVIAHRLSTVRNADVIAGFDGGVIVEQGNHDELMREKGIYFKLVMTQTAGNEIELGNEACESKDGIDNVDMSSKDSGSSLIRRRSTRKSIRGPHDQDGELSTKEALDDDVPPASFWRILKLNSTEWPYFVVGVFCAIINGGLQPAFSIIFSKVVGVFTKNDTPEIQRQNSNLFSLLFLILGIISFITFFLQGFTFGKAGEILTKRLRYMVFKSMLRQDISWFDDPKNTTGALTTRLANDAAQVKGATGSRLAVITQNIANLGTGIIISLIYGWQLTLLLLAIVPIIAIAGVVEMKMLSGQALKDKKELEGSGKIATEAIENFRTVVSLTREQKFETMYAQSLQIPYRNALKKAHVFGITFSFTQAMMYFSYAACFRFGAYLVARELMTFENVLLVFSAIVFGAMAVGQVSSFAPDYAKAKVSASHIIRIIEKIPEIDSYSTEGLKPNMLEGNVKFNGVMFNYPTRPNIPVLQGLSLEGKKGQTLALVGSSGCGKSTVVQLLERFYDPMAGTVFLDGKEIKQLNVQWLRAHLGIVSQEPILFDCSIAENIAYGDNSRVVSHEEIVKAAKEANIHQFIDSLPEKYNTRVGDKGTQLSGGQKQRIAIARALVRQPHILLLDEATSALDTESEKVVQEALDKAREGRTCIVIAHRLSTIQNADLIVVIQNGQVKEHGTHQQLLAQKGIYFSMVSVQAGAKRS
T1 sequence (Q6PSM0 1-1272): as above

## Cc1c(O)cccc1C(=O)N[C@@H](CSc1ccccc1)[C@H](O)CN1C[C@H]2CCCC[C@H]2C[C@H]1C(=O)NC(C)(C)C [NFV, Nelfinavir mesylate]
P-gp at the rat BBB [1]
  ft(P-gp), not corrected for vascular content: 0.95
[2]; at 120 min, Student's t-test
  effect of CsA on pseudo steady-state plasma NFV concentration: did not significantly affect; also recorded: not significantly affected
[2]; i.v. bolus plus constant rate i.v. infusion
  time to pseudo steady-state NFV plasma concentration: ≤ 30 min
P-gp at the human BBB [3]; CsA blood 1.5 µM
  predicted increase in NFV human brain:plasma concentration ratio: 236%
P-gp at the human BBB [3]; CsA blood 1.5 µM, rat data and in vitro LLCPK1-MDR1 data
  predicted increase in the NFV brain:plasma concentration ratio / distribution into the human brain: 241%
P-gp at the human BBB [3]; CsA blood 2.8 µM, in vitro data scaled using rat in vivo data
  predicted increase in the NFV brain:plasma concentration ratio at the human BBB: 555%
P-gp at the human BBB [3]; CsA blood 2.8 µM
  predicted increase in NFV human brain:plasma concentration ratio: 589%
BCRP
  substrate of BCRP: not a substrate
P-gp [4]
  increase in brain distribution in mdr1a/b(−/−) vs. wild-type mice: 3400%
P-gp [4]; 5
  increase in brain:blood concentration ratio in mdr1a/b(−/−) vs. wild-type mice: 3400%
P-gp [5]; NFV brain:plasma concentration ratio corrected for vascular contamination
  Kp at 2 h: 0.014 ± 0.01
P-gp [5]; NFV brain:plasma concentration ratio, not corrected for vascular contamination
  Kp at 2 h: 0.044 ± 0.01
P-gp [5]; NFV brain:plasma ratio after vascular-content correction
  Kp at 120 min: 0.9 ± 0.16
P-gp [5]; NFV brain:plasma ratio, uncorrected for vascular content
  Kp at 120 min: 0.93 ± 0.16
[6]
  blood: plasma ratio: 0.877

## C/C=C/C[C@@H](C)C(=O)[C@H]1C(=O)N[C@@H](C(C)C)C(=O)N(C)CC(=O)N(C)[C@@H](CC(C)C)C(=O)N[C@@H](C(C)C)C(=O)N(C)[C@@H](CC(C)C)C(=O)N[C@@H](C)C(=O)N[C@H](C)C(=O)N(C)[C@@H](CC(C)C)C(=O)N(C)[C@@H](CC(C)C)C(=O)N(C)[C@@H](C(C)C)C(=O)N1C [PSC833]
[7]
  brain tumor volume: significant reduction in the brain tumor volume

## CNC(=O)C(CCN1CCC(O)(c2ccc(Cl)cc2)CC1)(c1ccccc1)c1ccccc1 [dLop, N-desmethyl-loperamide]
P-gp at the human BBB [8]
  increase in distribution into the human brain: ≤ 300%

## CN(C)C(=O)C(CCN1CCC(O)(c2ccc(Cl)cc2)CC1)(c1ccccc1)c1ccccc1 [loperamide]
P-gp [9]
  increase in brain distribution in the presence vs. absence of the P-gp inhibitor: 1500%
P-gp at the rat BBB [10]
  increase in total loperamide-radioactivity uptake into the brain of rats: 588%
P-gp [4]
  increase in brain distribution in mdr1a/b(−/−) vs. wild-type mice: 1200%
